Reference: patent publication US8871756B2 (Hoffmann-La Roche Inc., priority 2011, dated 2014)

The compounds below were run on RSV Long strain (assay: Viral cytopathic effect (CPE) assay, anti-RSV activity). Settings: human respiratory syncytial virus, 144 h, RSV Long strain (ATCC); cell viability after 6 days, Cell Counting kit-8.
Format: cell-based, Respiratory Syncytial Virus
Outline: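 Cells (6×10^3/well, DMEM with 10% FBS) were infected next day with RSV Long strain, at a dose giving approximately 80–90% CPE, alongside serial half-log compound dilutions. Viability was read after 6 days by CCK-8 absorbance at 450 nm (reference 630 nm), and EC50 was derived from it.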
`Cc1ccc2nc(N3CCS(=O)(=O)c4ccccc4C3)cc(Nc3ccon3)c2c1` [Example 3-64, 2-(1,1-Dioxido-2,3-dihydro-1,4-benzothiazepin-4(5H)-yl)-6-methyl-N-(1,2-oxazol-3-yl)quinolin-4-amine] gave an EC50 of 0.874 µM. Compound `Cc1ccc2nc(N3CCS(=O)(=O)c4ccccc4C3)cc(NCCNCCO)c2c1` [Example 3-42, 2-[(2-{[2-(1,1-Dioxido-2,3-dihydro-1,4-benzothiazepin-4(5H)-yl)-6-methylquinolin-4-yl]amino}ethyl)amino]ethanol] has an EC50 of 0.007 µM. Compound `Cc1ccc2nc(N3CCS(=O)(=O)c4ccccc4C3)cc(N3CC(N)C4(COC4)C3)c2c1` (centres unmarked) [Example 23, 6-[2-(1,1-Dioxido-2,3-dihydro-1,4-benzothiazepin-4(5 H)-yl)-6-methylquinolin-4-yl]-2-oxa-6-azaspiro[3.4]octan-8-amine] has an EC50 of 5.19 µM. `Cc1ccc2nc(N3CCS(=O)(=O)c4ccccc4C3)cc(N3CCOCC3)c2c1` [Example 9-4, 4-[6-Methyl-4-(morpholin-4-yl)quinolin-2-yl]-2,3,4,5-tetrahydro-1,4-benzothiazepine 1,1-dioxide] was tested, and the EC50 was 8.87 µM. For `Cc1ccc2nc(N3CCS(=O)(=O)c4ccccc4C3)cc(N[C@@H](C)C(=O)O)c2c1` [Example 14-1, N-[2-(1,1-Dioxido-2,3-dihydro-1,4-benzothiazepin-4(5H)-yl)-6-methylquinolin-4-yl]-L-alanine], the EC50 was 2.19 µM. With `NCCCNc1cc(N2CCS(=O)(=O)c3ccccc3C2)nc2cccc(Cl)c12` [Example 9-13, N-[5-Chloro-2-(1,1-dioxido-2,3-dihydro-1,4-benzothiazepin-4(5H)-yl)quinolin-4-yl]propane-1,3-diamine] the EC50 was 0.701 µM. `Cc1ccc2nc(N3CCS(=O)(=O)c4ccccc4C3)cc(NCC3(N)COC3)c2c1` [Example 2-2, N-[(3-Aminooxetan-3-yl)methyl]-2-(1,1-dioxido-2,3-dihydro-1,4-benzothiazepin-4(5H)-yl)-6-methylquinolin-4-amine] was tested, and the EC50 was 0.002 µM. `CC(C)(N)CNc1cc(N2CCS(=O)(=O)c3ccccc3C2)nc2ccc(Cl)cc12` [Example 3-26, N^˜1^˜-[6-Chloro-2-(1,1-dioxido-2,3-dihydro-1,4-benzothiazepin-4(5H)-yl)quinolin-4-yl]-2-methylpropane-1,2-diamine] showed an EC50 of 0.876 µM. `Cc1ccc2nc(N3CCCc4cc(F)ccc4C3)cc(NCCN)c2c1` [Example 118-13, N-[2-(7-Fluoro-1,3,4,5-tetrahydro-2H-2-benzazepin-2-yl)-6-methylquinolin-4-yl]ethane-1,2-diamine] showed an EC50 of 0.463 µM. With `NCCNc1cc(N2Cc3ccc(Br)cc3CCC2=O)nc2ccccc12` [Example 124, 2-{4-[(2-Aminoethyl)amino]quinolin-2-yl}-7-bromo-1,2,4,5-tetrahydro-3H-2-benz azepin-3-one] the EC50 was 6.1 µM. In the case of `Cc1ccc2nc(N3CCS(=O)(=O)c4ccccc4C3)nc(NCCO)c2c1` [Example 57-7, 2-{[2-(1,1-Dioxido-2,3-dihydro-1,4-benzothiazepin-4(5H)-yl)-6-methylquinazolin-4-yl]amino}ethanol], the EC50 is reported as 0.081 µM. `Cc1ccc2nc(N3CCS(=O)(=O)c4ccccc4C3)cc(NCCCNC3COC3)c2c1` [Example 45-1, N-[2-(1,1-Dioxido-2,3-dihydro-1,4-benzothiazepin-4(5H)-yl)-6-methylquinolin-4-yl]-N′-(oxetan-3-yl)propane-1,3-diamine] was tested, and the EC50 was 0.021 µM. Compound `Cc1ccc2nc(N3CCS(=O)(=O)c4ccccc4C3)cc(NCC3(C)CN=C(N)O3)c2c1` (centres unmarked) [Example 38-2, N-[(2-Amino-5-methyl-4,5-dihydro-1,3-oxazol-5-yl)methyl]-2-(1,1-dioxido-2,3-dihydro-1,4-benzothiazepin-4(5H)-yl)-6-methylquinolin-4-amine] has an EC50 of 0.302 µM. With `Cc1ccc2nc(N3CCC(F)(F)c4ccccc4C3)cc(NCCN3CCNCC3)c2c1` [Example 110-7, 2-(5,5-Difluoro-1,3,4,5-tetrahydro-2H-2-benzazepin-2-yl)-6-methyl-N-[2-(piperazin-1-yl)ethyl]quinolin-4-amine] the EC50 was 1.18 µM.
